Assay results taken from PubChem BioAssay AID1919002 (Molecular Pharmacology Branch, DTP, NCI, 2023).
Values joined by “and” are separate entries in the source; they are usually repeats but may differ in a detail not shown here. Equal entries are not always repeated. Values belong to the compound of their own block, whether it stands above or below them.

Tested on: 743489-274-T-PDC complex spheroid growth
Assay: Anticancer human tumor 743489-274-T-PDC patient-derived renal cell carcinoma cell line growth inhibition [AhR]
Settings: for viability, T/C: stronger effect = lower value
Procedure, shortened: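 Complex tumor spheroids co-cultured with HUVEC and human MSC stroma; AhR antagonists tested in combination with standard-of-care and investigational agents. Top concentration at or near clinical Cmax (else 10 microM), half-log dilutions; growth expressed as percent test/control.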

[1] = curve of first compound, second compound 0.1 µM
[2] = curve of first compound, second compound 0.316 µM
[3] = curve of first compound, second compound 1 µM
[4] = curve of first compound, second compound 3.16 µM
[5] = curve of first compound, second compound 10 µM
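Also: spheroids exposed to agents for 7 days before readout.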
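For viability, T/C in this document: 100% = DMSO vehicle control wells.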

IC50 [1]: > 0.1 µM
IC50 [2]: > 0.1 µM
IC50 [3]: > 0.1 µM
IC50 [4]: > 0.1 µM
IC50 [5]: > 0.1 µM
Compound: CC[C@@]1(O)C(=O)OCc2c1cc1n(c2=O)Cc2cc3c(CN(C)C)c(O)ccc3nc2-1 + Cc1cncc(-c2nc(NCCc3c[nH]c4ccccc34)c3ncn(C(C)C)c3n2)c1
viability, T/C (second compound 0.1 µM, first compound 0.000316 µM): 100%
viability, T/C (second compound 0.1 µM, first compound 0.001 µM): 108%
viability, T/C (second compound 0.1 µM, first compound 0.00316 µM): 98.7%
viability, T/C (second compound 0.1 µM, first compound 0.01 µM): 94.5%
viability, T/C (second compound 0.1 µM, first compound 0.0316 µM): 93.1%
viability, T/C (second compound 0.1 µM, first compound 0.1 µM): 97.4%
viability, T/C (second compound 0.316 µM, first compound 0.000316 µM): 105%
viability, T/C (second compound 0.316 µM, first compound 0.001 µM): 110%
viability, T/C (second compound 0.316 µM, first compound 0.00316 µM): 105%
viability, T/C (second compound 0.316 µM, first compound 0.01 µM): 98.6%
viability, T/C (second compound 0.316 µM, first compound 0.0316 µM): 92.8%
viability, T/C (second compound 0.316 µM, first compound 0.1 µM): 90.4%
viability, T/C (second compound 1 µM, first compound 0.000316 µM): 101%
viability, T/C (second compound 1 µM, first compound 0.001 µM): 105%
viability, T/C (second compound 1 µM, first compound 0.00316 µM): 101%
viability, T/C (second compound 1 µM, first compound 0.01 µM): 89.8%
viability, T/C (second compound 1 µM, first compound 0.0316 µM): 86.5%
viability, T/C (second compound 1 µM, first compound 0.1 µM): 84.3%
viability, T/C (second compound 3.16 µM, first compound 0.000316 µM): 113%
viability, T/C (second compound 3.16 µM, first compound 0.001 µM): 109%
viability, T/C (second compound 3.16 µM, first compound 0.00316 µM): 129%
viability, T/C (second compound 3.16 µM, first compound 0.01 µM): 101%
viability, T/C (second compound 3.16 µM, first compound 0.0316 µM): 107%
viability, T/C (second compound 3.16 µM, first compound 0.1 µM): 84.7%
viability, T/C (second compound 10 µM, first compound 0.000316 µM): 136%
viability, T/C (second compound 10 µM, first compound 0.001 µM): 123%
viability, T/C (second compound 10 µM, first compound 0.00316 µM): 133%
viability, T/C (second compound 10 µM, first compound 0.01 µM): 123%
viability, T/C (second compound 10 µM, first compound 0.0316 µM): 123%
viability, T/C (second compound 10 µM, first compound 0.1 µM): 114%

IC50 (curve of compound): > 1 µM
Compound: Nc1ncn(C2CC(O)C(CO)O2)c(=O)n1 (configuration not stated)
viability, T/C (compound 0.00316 µM): 94.8% and 98.8% and 101%
viability, T/C (compound 0.01 µM): 112% and 106% (2×)
viability, T/C (compound 0.0316 µM): 102% and 106% and 105%
viability, T/C (compound 0.1 µM): 90.8% and 93.7% and 102%
viability, T/C (compound 0.316 µM): 100% and 96.7% and 104%
viability, T/C (compound 1 µM): 94% and 93.5% (2×)

IC50 [1]: 0.0213 µM
IC50 [2]: 0.0215 µM
IC50 [3]: 0.0198 µM
IC50 [4]: 0.0182 µM
IC50 [5]: 0.0166 µM
Compound: CC(C)CC(NC(=O)C(Cc1ccccc1)NC(=O)c1cnccn1)B(O)O (configuration not stated) + CC(CO)NC(=O)c1cc(-c2ccc(Cl)cc2)nn(-c2cnn(C)c2)c1=O
viability, T/C (second compound 0.1 µM, first compound 0.000949 µM): 106%
viability, T/C (second compound 0.1 µM, first compound 0.003 µM): 102%
viability, T/C (second compound 0.1 µM, first compound 0.00949 µM): 104%
viability, T/C (second compound 0.1 µM, first compound 0.03 µM): 27.3%
viability, T/C (second compound 0.1 µM, first compound 0.0949 µM): 10.7%
viability, T/C (second compound 0.1 µM, first compound 0.3 µM): 4.68%
viability, T/C (second compound 0.316 µM, first compound 0.000949 µM): 90.2%
viability, T/C (second compound 0.316 µM, first compound 0.003 µM): 102%
viability, T/C (second compound 0.316 µM, first compound 0.00949 µM): 102%
viability, T/C (second compound 0.316 µM, first compound 0.03 µM): 30.3%
viability, T/C (second compound 0.316 µM, first compound 0.0949 µM): 11.1%
viability, T/C (second compound 0.316 µM, first compound 0.3 µM): 4.81%
viability, T/C (second compound 1 µM, first compound 0.000949 µM): 90.5%
viability, T/C (second compound 1 µM, first compound 0.003 µM): 104%
viability, T/C (second compound 1 µM, first compound 0.00949 µM): 94.9%
viability, T/C (second compound 1 µM, first compound 0.03 µM): 24.6%
viability, T/C (second compound 1 µM, first compound 0.0949 µM): 9.8%
viability, T/C (second compound 1 µM, first compound 0.3 µM): 4.5%
viability, T/C (second compound 3.16 µM, first compound 0.000949 µM): 94.3%
viability, T/C (second compound 3.16 µM, first compound 0.003 µM): 96.7%
viability, T/C (second compound 3.16 µM, first compound 0.00949 µM): 87.1%
viability, T/C (second compound 3.16 µM, first compound 0.03 µM): 21.2%
viability, T/C (second compound 3.16 µM, first compound 0.0949 µM): 10.7%
viability, T/C (second compound 3.16 µM, first compound 0.3 µM): 3.25%
viability, T/C (second compound 10 µM, first compound 0.000949 µM): 98%
viability, T/C (second compound 10 µM, first compound 0.003 µM): 111%
viability, T/C (second compound 10 µM, first compound 0.00949 µM): 85.4%
viability, T/C (second compound 10 µM, first compound 0.03 µM): 12.6%
viability, T/C (second compound 10 µM, first compound 0.0949 µM): 10.3%
viability, T/C (second compound 10 µM, first compound 0.3 µM): 4.28%
